Measurements: the NIST ThermoML archive (doi:10.1016/j.jct.2015.02.023)
Numbers after ± are expanded uncertainties.

Assay: activity coefficient (dimensionless); of the first substance listed, at infinite dilution; xn = mol fraction of the nth substance listed
Settings: 101.33 kPa, Liquid, Chromatography, x1 = 0

Structure (SMILES) | activity coefficient (313.15 K) | activity coefficient (323.15 K) | activity coefficient (333.15 K) | activity coefficient (343.15 K) | activity coefficient (353.15 K) | activity coefficient (373.15 K)
CCCC(C)=O [pentan-2-one] + CO[PH](=O)[O-].Cn1cc[n+](C)c1 | 10.6 ± 0.7 | 10.5 ± 0.7 | 10.3 ± 0.7 | 10.1 ± 0.7 | – | –
c1ccncc1 [pyridine] + CO[PH](=O)[O-].Cn1cc[n+](C)c1 | 2.15 ± 0.15 | 2.16 ± 0.15 | 2.17 ± 0.15 | 2.19 ± 0.15 | – | –
C[N+](=O)[O-] [nitromethane] + CCn1cc[n+](C)c1.CO[PH](=O)[O-] | 0.75 ± 0.049 | – | 0.787 ± 0.051 | – | 0.831 ± 0.054 | 0.873 ± 0.056
ClCCl [dichloromethane] + CCn1cc[n+](C)c1.CO[PH](=O)[O-] | 0.502 ± 0.038 | – | 0.642 ± 0.044 | – | 0.798 ± 0.052 | –
CC1CCCCC1 [methylcyclohexane] + CCn1cc[n+](C)c1.CO[PH](=O)[O-] | 211 ± 15 | – | 70.8 ± 4.9 | – | – | –
Cc1cccc(C)c1 [1,3-dimethylbenzene] + CCn1cc[n+](C)c1.CO[PH](=O)[O-] | 18.6 ± 1.3 | – | 18.8 ± 1.3 | – | 20.4 ± 1.4 | 24.9 ± 1.7
CCCC(C)=O [pentan-2-one] + CCn1cc[n+](C)c1.CO[PH](=O)[O-] | 6.12 ± 0.42 | – | 6.13 ± 0.42 | – | 6.15 ± 0.42 | 6.18 ± 0.42
CCCCCCCCCCC [undecane] + CO[PH](=O)[O-].Cn1cc[n+](C)c1 | 1530 ± 110 | 1470 ± 100 | 1400 ± 97 | 1330 ± 92 | – | –
CCCCCCCCCCCC [dodecane] + CCn1cc[n+](C)c1.CO[PH](=O)[O-] | 1740 ± 120 | – | 1540 ± 110 | – | 1300 ± 90 | 915 ± 63
CC1CCCCC1 [methylcyclohexane] + CO[PH](=O)[O-].Cn1cc[n+](C)c1 | 257 ± 18 | – | – | – | – | –
CCO [ethanol] + CCn1cc[n+](C)c1.CO[PH](=O)[O-] | – | – | 0.148 ± 0.029 | – | 0.156 ± 0.029 | 0.169 ± 0.029
Cc1ccccc1 [toluene] + CCn1cc[n+](C)c1.CO[PH](=O)[O-] | 6.53 ± 0.45 | – | 6.63 ± 0.45 | – | 6.82 ± 0.46 | 7.16 ± 0.49
C1CCCCCC1 [cycloheptane] + CCn1cc[n+](C)c1.CO[PH](=O)[O-] | 98.8 ± 6.8 | – | 180 ± 12 | – | 303 ± 21 | 438 ± 30
C1COCCO1 [1,4-dioxane] + CCn1cc[n+](C)c1.CO[PH](=O)[O-] | 3.4 ± 0.23 | – | 3.55 ± 0.24 | – | 3.87 ± 0.26 | 4.33 ± 0.29
CCC[N+](=O)[O-] [1-nitropropane] + CO[PH](=O)[O-].Cn1cc[n+](C)c1 | 3.41 ± 0.23 | 3.35 ± 0.23 | 3.29 ± 0.22 | 3.29 ± 0.22 | – | –
C[N+](=O)[O-] [nitromethane] + CO[PH](=O)[O-].Cn1cc[n+](C)c1 | 0.8 ± 0.05 | 0.81 ± 0.05 | 0.82 ± 0.05 | 0.83 ± 0.05 | – | –
CCCCCCCCCCCCCC [tetradecane] + CO[PH](=O)[O-].Cn1cc[n+](C)c1 | 3560 ± 250 | 3220 ± 220 | 2980 ± 210 | 2890 ± 200 | – | –
Cc1ccccc1C [1,2-dimethylbenzene] + CO[PH](=O)[O-].Cn1cc[n+](C)c1 | 19.2 ± 1.3 | 19.1 ± 1.3 | 18.6 ± 1.3 | 18.5 ± 1.3 | – | –
C#CCCCC [1-hexyne] + CCn1cc[n+](C)c1.CO[PH](=O)[O-] | 6.24 ± 0.43 | – | 6.73 ± 0.46 | – | 7.14 ± 0.49 | 7.56 ± 0.52
Cc1ccccc1 [toluene] + CO[PH](=O)[O-].Cn1cc[n+](C)c1 | 11.5 ± 0.78 | 11.4 ± 0.78 | 11.3 ± 0.77 | 11.2 ± 0.77 | – | –
C#CCCCCC [1-heptyne] + CCn1cc[n+](C)c1.CO[PH](=O)[O-] | 10.2 ± 0.7 | – | 11.1 ± 0.8 | – | 11.8 ± 0.8 | 12 ± 0.8
ClC(Cl)Cl [trichloromethane] + CCn1cc[n+](C)c1.CO[PH](=O)[O-] | 0.277 ± 0.03 | – | 0.358 ± 0.033 | – | 0.451 ± 0.036 | 0.544 ± 0.04
C=O [methanal] + CCn1cc[n+](C)c1.CO[PH](=O)[O-] | 0.059 | – | 0.084 ± 0.03 | – | 0.115 ± 0.03 | 0.151 ± 0.029
ClC(Cl)(Cl)Cl [tetrachloromethane] + CO[PH](=O)[O-].Cn1cc[n+](C)c1 | 6.57 ± 0.45 | 6.83 ± 0.47 | 7.03 ± 0.48 | – | – | –
CCCCCCCCCCC [undecane] + CCn1cc[n+](C)c1.CO[PH](=O)[O-] | 1340 ± 93 | – | 1080 ± 74 | – | 888 ± 61 | –
CCCO [propan-1-ol] + CCn1cc[n+](C)c1.CO[PH](=O)[O-] | – | – | – | – | 0.207 ± 0.029 | 0.214 ± 0.029

Structure (SMILES) | activity coefficient (313.15 K) | activity coefficient (323.15 K) | activity coefficient (333.15 K) | activity coefficient (343.15 K) | activity coefficient (353.15 K) | activity coefficient (373.15 K)
Cc1ccccc1C [1,2-dimethylbenzene] + CCn1cc[n+](C)c1.CO[PH](=O)[O-] | 14.4 ± 1 | – | 15 ± 1 | – | 16.2 ± 1.1 | 18.8 ± 1.3
Cc1ccc(C)cc1 [1,4-dimethylbenzene] + CO[PH](=O)[O-].Cn1cc[n+](C)c1 | 23.4 ± 1.6 | 23.4 ± 1.6 | 22.7 ± 1.6 | 22 ± 1.5 | – | –
C#CCCCCC [1-heptyne] + CO[PH](=O)[O-].Cn1cc[n+](C)c1 | 22 ± 1.5 | 23.5 ± 1.6 | 23.5 ± 1.6 | 24.9 ± 1.7 | – | –
CCCCCCCCCC [decane] + CCn1cc[n+](C)c1.CO[PH](=O)[O-] | 882 ± 61 | – | 704 ± 48 | – | 582 ± 40 | –
CCC(C)=O [butanone] + CCn1cc[n+](C)c1.CO[PH](=O)[O-] | 3.49 ± 0.24 | – | 3 ± 0.2 | – | 2.56 ± 0.17 | 2.37 ± 0.16
c1ccsc1 [thiophene] + CO[PH](=O)[O-].Cn1cc[n+](C)c1 | 2.47 ± 0.17 | 2.54 ± 0.17 | 2.58 ± 0.18 | 2.6 ± 0.18 | – | –
CCCCO [butan-1-ol] + CCn1cc[n+](C)c1.CO[PH](=O)[O-] | – | – | – | – | 0.308 ± 0.031 | 0.324 ± 0.032
CC(C)CO [2-methyl-1-propanol] + CCn1cc[n+](C)c1.CO[PH](=O)[O-] | – | – | – | – | 0.292 ± 0.031 | 0.309 ± 0.031
ClC(Cl)(Cl)Cl [tetrachloromethane] + CCn1cc[n+](C)c1.CO[PH](=O)[O-] | 4.38 ± 0.3 | – | 4.96 ± 0.34 | – | – | –
C1CCCCC1 [cyclohexane] + CO[PH](=O)[O-].Cn1cc[n+](C)c1 | 129 ± 9 | – | – | – | – | –
CCc1ccccc1 [ethylbenzene] + CO[PH](=O)[O-].Cn1cc[n+](C)c1 | 22.7 ± 1.6 | 22.1 ± 1.5 | 21.7 ± 1.5 | 21.5 ± 1.5 | – | –
CCCCCCCCC [nonane] + CCn1cc[n+](C)c1.CO[PH](=O)[O-] | 617 ± 42 | – | 485 ± 33 | – | – | –
C1CCCCC1 [cyclohexane] + CCn1cc[n+](C)c1.CO[PH](=O)[O-] | 89 ± 6 | – | 43.1 ± 3 | – | – | –
CO [methanol] + CO[PH](=O)[O-].Cn1cc[n+](C)c1 | – | – | – | 0.07 ± 0.03 | – | –
ClC(Cl)Cl [trichloromethane] + CO[PH](=O)[O-].Cn1cc[n+](C)c1 | 0.39 ± 0.03 | 0.43 ± 0.04 | 0.48 ± 0.04 | 0.51 ± 0.04 | – | –
C1COCCO1 [1,4-dioxane] + CO[PH](=O)[O-].Cn1cc[n+](C)c1 | 3.73 ± 0.25 | 3.72 ± 0.25 | 3.69 ± 0.25 | 3.66 ± 0.25 | – | –
CC#N [acetonitrile] + CCn1cc[n+](C)c1.CO[PH](=O)[O-] | 1.08 ± 0.07 | – | 1.11 ± 0.07 | – | 1.19 ± 0.08 | 1.25 ± 0.08
Cc1cccc(C)c1 [1,3-dimethylbenzene] + CO[PH](=O)[O-].Cn1cc[n+](C)c1 | 24.5 ± 1.7 | 24.4 ± 1.7 | 23.6 ± 1.6 | 23.1 ± 1.6 | – | –
c1ccsc1 [thiophene] + CCn1cc[n+](C)c1.CO[PH](=O)[O-] | 1.99 ± 0.14 | – | 2.16 ± 0.15 | – | 2.5 ± 0.17 | 2.64 ± 0.18
CCCCCCCCCCCCCC [tetradecane] + CCn1cc[n+](C)c1.CO[PH](=O)[O-] | 3490 ± 240 | – | 3010 ± 210 | – | 2610 ± 180 | 2270 ± 160
CCc1ccccc1 [ethylbenzene] + CCn1cc[n+](C)c1.CO[PH](=O)[O-] | 11.4 ± 0.8 | – | 11.6 ± 0.8 | – | 11.7 ± 0.8 | 11.9 ± 0.8
CCCCCCCCCC [decane] + CO[PH](=O)[O-].Cn1cc[n+](C)c1 | 1220 ± 84 | 1210 ± 84 | – | – | – | –
CCCCCCCCCCCCC [tridecane] + CO[PH](=O)[O-].Cn1cc[n+](C)c1 | 2380 ± 160 | 2220 ± 150 | 2160 ± 150 | 2120 ± 150 | – | –
C1CCCCCC1 [cycloheptane] + CO[PH](=O)[O-].Cn1cc[n+](C)c1 | 250 ± 17 | – | – | – | – | –
CCC(C)=O [butanone] + CO[PH](=O)[O-].Cn1cc[n+](C)c1 | 5.52 ± 0.38 | 5.16 ± 0.35 | 4.66 ± 0.32 | 4.17 ± 0.28 | – | –
CCN(CC)CC [triethylamine] + CCn1cc[n+](C)c1.CO[PH](=O)[O-] | 30.2 ± 2.1 | – | 48 ± 3.3 | – | – | –
